How the values were obtained:
AtTTM2 = assay: Quantitative real-time PCR of AtTTM2 expression after SA, BTH or flg22 treatment; assay type: in vivo, Arabidopsis thaliana
Procedure: (§1) Arabidopsis (Arabidopsis thaliana accession Columbia), canola (Brassica napus var. Westar), and soybean (Glycine max var. Harasoy) plants were grown in Sunshine Mix at 22° C., 60% relative humidity (RH), and ˜140 μE m^−2 s^−1 with a 9h-photoperiod. 7-10 day-old Arabidopsis plants were infected with Hyaloperonospora arabidopsidis (Hpa). Spore counts of 1×10^5 conidiospores ml^−1, 8×10^5 cells ml^−1, and 2×10^5 cells ml^−1 were used for Noco2, Emco5, and Emwa1 isolates, respectively. Seedlings were then infected via drop inoculation and left at 16° C., >90% RH for 7-10 days before disease assessment. 4-week-old plants were infiltrated with 1×10^5 CFU ml^−1 of the bacterial pathogen, Pseudomonas syringae tomato DC3000 (AvrRps4) and bacterial growth was assessed at 0 and 3 days post infiltration.
(§2) RNA extraction was carried out using the TRIzol reagent (Life Technologies, Carlsbad, Calif.), according to the manufacturer's instructions. Reverse transcriptase (RT)-PCR was performed using cDNA generated by SuperScript II Reverse Transcriptase (Life Technologies, Carlsbad, Calif.) according to the manufacturer's instructions. Expression of PR1 was visualized by gel electrophoresis of samples after RT-PCR with PR1 primers (AtPR1-F, AtPR1-R).
(§3) Quantitative real-time PCR was performed using Fast SYBR Green Master Mix (Life Technologies, Carlsbad, Calif.). […]

PR1 = assay: Quantitative real-time PCR of PR1 gene expression after SA or BTH treatment; assay type: in vivo, Arabidopsis thaliana; settings: Col wild type
Procedure: as §1, §2, §3

BnTTM2a, BnTTM2b = assay: qPCR of TTM2 orthologues in canola after BTH treatment; assay type: in vivo, Brassica napus; settings: canola var. Westar, 200 μM BTH, 48hrs
Procedure: as §1
(§4) Quantitative real-time PCR was performed using Fast SYBR Green Master Mix (Life Technologies, Carlsbad, Calif.). The expression of Arabidopsis genes were normalized to the expression of AtEF1A (elongation factor1-alpha) while the expression of soybean and canola genes were normalized to GmEF1B (elongation factor1-beta) and BnUBC21 (ubiquitin conjugating enzyme21), respectively.
(§5) 7- to 10-day old Arabidopsis seedlings were treated with 100 μM SA or 200 μM BTH. […]

GmTTM2a/b = assay: qPCR of TTM2 orthologues in soybean after BTH treatment; assay type: in vivo, Glycine max; settings: soybean var. Harasoy, 200 μM BTH, 48hrs
Procedure: as §1, §4, §5

SITTM2A and B = assay: Expression of TTM2 in tomato after BTH treatment; assay type: in vivo, Solanum lycopersicum; settings: 4-5 week old tomato, 200 μM BTH, 48 hours
Procedure: (§6) Tomato, Cucumber, Pepper and Petunia plants for BTH treatment were grown in Sunshine Mix at 22° C., 60% relative humidity, and approximately 140 uE m^−2 s^−1 with a 9-h photoperiod. Rice and Brachypodium distachyon plants for BTH treatment were grown in Rice Mix. tomato plants for Pseudomonas infection were grown in Sunshine Mix, at 22° C. 60% relative humidity, and natural light condition.
FIG. 23 illustrates expression of SITTM2A and B in approximately 4-5 week old tomato (Solanum lycopersicum) 48 hours after with and without BTH (200 μM) treatment. Solution was sprayed with the addition of 0.025% (v/v) Silwet. Expression of both genes was suppressed similar to Arabidopsis TTM2.

CsTTM2 = assay: Expression of TTM2 in cucumber after BTH treatment; assay type: in vivo, Cucumis sativus; settings: 4-5 week old cucumber, 200 uM BTH, 48 hours
Procedure: as §6
FIG. 24a illustrates expression of CsTTM2 in approximately 4-5 week old cucumber (Cucumis sativus) 48 hours after BTH (200 uM) treatment. Solution was sprayed with the addition of 0.025% (v/v) Silwet. Expression of the gene was suppressed similar to Arabidopsis TTM2.

CaTTM2 = assay: Expression of TTM2 in pepper after BTH treatment; assay type: in vivo, Capsicum annuum; settings: 4-5 week old pepper, 200 uM BTH, 48 hours
Procedure: as §6
FIG. 24b illustrates expression of CaTTM2 in approximately 4-5 week old pepper (Capsicum annuum) 48 hours after BTH (200 uM) treatment. Solution was sprayed with the addition of 0.025% (v/v) Silwet. Expression of the gene was suppressed similar to Arabidopsis TTM2.

PhTTM2A and B = assay: Expression of TTM2 in Petunia after BTH treatment; assay type: in vivo, Petunia hybrida; settings: 4-5 week old Petunia, 200 uM BTH, 48 hours
Procedure: as §6
FIG. 25 illustrates expression of PhTTM2A and B in approximately 4-5 week old Petunia (Petunia hybrida) 48 hours after BTH (200 uM) treatment. Solution was sprayed with the addition of 0.025% (v/v) Silwet. Expression of both genes was suppressed similar to Arabidopsis TTM2.

OsTTM2 = assay: Expression of TTM2 in rice after BTH treatment; assay type: in vivo, Oryza sativa; settings: 4 week old rice, 200 uM BTH, 48 hours
Procedure: as §6
(§7) FIG. 26 illustrates expression of OsTTM2 in 4 week old rice (Oryza sativa) plant and BdTTM2 in the model monocotyledonous plant Brachypodium distachyon 48 hours after BTH (200 uM) treatment. Solution was sprayed with the addition of 0.025% (v/v) Silwet. Expression of both genes was suppressed similar to Arabidopsis TTM2.

BdTTM2 = assay: Expression of TTM2 in Brachypodium distachyon after BTH treatment; assay type: in vivo; settings: 200 uM BTH, 48 hours
Procedure: as §6, §7

Structure (SMILES)	AtTTM2 down-regulation after BTH treatment (AtTTM2; Col wild type, 200 μM BTH, 48h)	PR1 gene expression after BTH treatment (PR1; 200 μM BTH, 48h)	Expression of BnTTM2a, BnTTM2b in response to BTH (BnTTM2a, BnTTM2b)	Expression of GmTTM2a/b in response to BTH (GmTTM2a/b)	Expression of SITTM2A and B after BTH treatment (SITTM2A and B)	Expression of CsTTM2 after BTH treatment (CsTTM2)	Expression of CaTTM2 after BTH treatment (CaTTM2)	Expression of PhTTM2A and B after BTH treatment (PhTTM2A and B)	Expression of OsTTM2 after BTH treatment (OsTTM2)	Expression of BdTTM2 after BTH treatment (BdTTM2)	AtTTM2 down-regulation after SA treatment (AtTTM2; Col wild type plants sprayed with 100 μM SA, 24h)	PR1 gene expression after SA treatment (PR1; 100 μM SA, 24h)
c1ccc2snnc2c1 [BTH, benzothiadiazole]	down-regulation was also observed	increase in PR1 gene expression	similarly down-regulated	similarly down-regulated	suppressed	suppressed	suppressed	suppressed	suppressed	suppressed		
O=C(O)c1ccccc1O [SA, salicylic acid]											more than 2 fold	increase in PR1 gene expression
